Assay results taken from patent US12723236B2, “Method for producing cell aggregate” (TOPPAN Holdings Inc., priority 2021, dated 2026).
“Also recorded” adds a separate entry of the source.

Tests used:
PXB cells, SEC and LX2 = test: Aggregation behavior of cells treated with heparin/collagen (live-cell confocal observation); format: cell-based, Human; details: 0.2 mg/mL collagen, 0.5 mg/mL heparin in 100 mM Tris-HCl; 96-well microplate; 2 hours after seeding; FIG. 2
Procedure: PXB cells, SEC and LX2 were used as cells.
The collected cells were mixed at the following ratios and cell amounts to obtain a cell mixture. • total amount of cells: 300,000 cells • cell proportions in tissue: • PXB cells: 65%·SEC: 25%·LX2: 10% Step 1-4
(§1) 100 μL of each of the following solutions was added to the cell mixture at room temperature, suspended until the cells were no longer visible, and then centrifuged (400 g×2 min) to obtain a viscous component. Here, regardless of the presence of heparin and collagen, it was confirmed in advance that the pH of each solution was approximately around 7.4. • (1) 100 mM Tris-HCl buffer solution • (2) collagen-containing solution (0.2 mg/mL collagen in 100 mM Tris-HCl buffer solution*) • (3) collagen and heparin-containing solution (0.2 mg/mL collagen and 0.5 mg/mL heparin in 100 mM Tris-HCl buffer solution) • *Since collagen quickly gelled in a neutral solution at room temperature, equal amounts of a 0.4 mg/mL collagen in 5 mM acetate buffer solution and a 200 mM Tris-HCl buffer solution prepared in advance were mixed in each of the above solutions and used. Step 1-5
After the supernatant was removed from the solution containing the viscous component, HCM was added so that the final volume of the solution was a solution amount of 100 μL to obtain a cell suspension. […]

MRP2 = MRP2 immunostaining and image analysis of hepatotoxicity model formed in fibrin gel; format: cell-based, Human; details: 3 days of culture; for expression of MRP2 (fluorescence): 0.2 mg/mL collagen and/or 0.5 mg/mL heparin
Procedure: Regarding hepatotoxicity models treated with each solution, it was evaluated whether there was a difference in the state of adhesion between hepatocytes.
A cell mixture with the following proportions and cell amounts was obtained in the same procedures as Steps 1-1 to 1-3 in Test Example 1. • total amount of cells: 300,000 cells • cell proportions in tissue: • PXB cell: 65%·SEC: 25%·LX2: 10% Step 2-2
After the supernatant was removed from the solution containing the viscous component obtained in Step 2-2, a 20 U/mL thrombin solution (solvent: HCM) was added so that the final volume of the solution was a solution amount of “the number of wells to be seeded”×2 μL to obtain a cell suspension.
2 μL of a 10 mg/mL fibrinogen solution was seeded on a 48-well microplate to form droplets and each cell suspension obtained in Step 2-3 was then added into the droplets, and then left in an incubator for 1 hour to form a fibrin gel.
0.5 mL of HCM (containing Endothelial Cell Growth Supplement) was added to each well in which the fibrin gel was formed.
After HCM was added, culture was continued for 3 days in each well in which the fibrin gel was formed.
After 3 days of culture, the 48-well microplate was removed from the incubator, the medium was removed, washing with PBS was performed, and 300 μL of a 4% paraformaldehyde·phosphate buffer solution (hereinafter referred to as PFA) was then added to each well to fix a hepatotoxicity model (3D model). Then, the PFA was washed thoroughly and removed.
100 μL of a 0.2 (v/v) % TRITON/1 (w/v) % BSA PBS solution (hereinafter referred to as a BSA solution) was added to each well, and left at room temperature for 2 hours.
Anti-MRP2 antibodies were diluted 100-fold with a BSA solution to obtain a primary antibody solution. 100 μL of the primary antibody solution was added to each well and left at 4° C. for 24 hours. Then, the primary antibody solution was washed thoroughly and removed.
Secondary antibodies were diluted 200-fold with a BSA solution to obtain a secondary antibody solution. 100 μL of the secondary antibody solution was added to each well, shielded from light and left at room temperature for 1 hour. Then, the secondary antibody solution was washed thoroughly and removed, and 100 μL of PBS was added to each well.
Images were captured under a confocal microscope. […]
The intensities of the captured images were summed to obtain a fluorescence observation image of each hepatotoxicity model (3D model). […]

[1] = Gelation of neutral collagen solution at room temperature; format: physicochemical; details: pH 7.4, room temperature
Procedure: as §1
Since collagen quickly gelled in a neutral solution at room temperature, equal amounts of a 0.4 mg/mL collagen in 5 mM acetate buffer solution and a 200 mM Tris-HCl buffer solution prepared in advance were mixed in each of the above solutions and used. […]

bile canaliculi = test: Bile acid assay (CLF) confirming formation of bile canaliculi in hepatotoxicity model; format: cell-based, Human; details: collagen 0.3 mg/mL, 6 days of culture
Procedure: A hepatotoxicity model was produced according to the same method as in the method described in Test Examples 1 and 2. However, the collagen concentration was 0.3 mg/mL, and the heparin concentration was 0.05 mg/mL, 0.15 mg/mL, 0.5 mg/mL, or 5.0 mg/mL (all final concentrations).
After 6 days of culture, the medium was replaced with 300 μL of a medium containing 5 μM CLF (FITC-labeled bile acid CORNING #451041) on which the following operation was performed (this assay was performed while cells were alive). After being left in the incubator for 20 min, the tissue was washed with PBS 5 times. The medium was replaced, and observation was performed under a fluorescence microscope.
FIG. 6, FIG. 7, FIG. 8, and FIG. 9 show the results of fluorescence observation after a medium containing CLF was incubated for the hepatotoxicity models produced with different heparin concentrations. […] In each drawing, the scale bar indicates 500 μm. In normal live tissue in which bile canaliculi were favorably formed, it was thought that, since hepatocytes excreted bile acids taken up from the outside of the live tissue into the bile canaliculi, the intensity of fluorescence derived from FITC retained in the cells was low after the CLF treatment.

Substance | aggregation of cells (PXB cells, SEC and LX2) | expression of MRP2 (fluorescence) (MRP2; versus control, FIG. 3) | aggregation of cells in hepatotoxicity model (MRP2; 0.2 mg/mL collagen, FIG. 3) | gelation of solution at room temperature [1] | expression intensity percentage of MRP2 (expression area percentage per area, image analysis) (MRP2; versus control, FIG. 5) | excretion of CLF taken into hepatocytes into the bile canaliculi (bile canaliculi; heparin 0.15, 0.5 or 5.0 mg/mL, 5 μM CLF 20 min, FIG. 7-9, (hydrochloride)) | intensity of fluorescence derived from FITC retained in the cells with increasing heparin concentration (bile canaliculi; heparin concentration increased, 5 μM CLF)
collagen | aggregation of cells was significantly promoted | expression of MRP2 tended to decrease significantly | cells tended to aggregate excessively | quickly gelled at room temperature |  |  | 
heparin (hydrochloride) |  | fluorescence was enhanced as a whole compared to control conditions |  | did not gel at room temperature for a long time | higher expression intensity percentage of MRP2 than the control | CLF taken into hepatocytes was more efficiently excreted into the bile canaliculi; also recorded: CLF taken into hepatocytes was easily excreted into the bile canaliculi | the intensity of fluorescence derived from FITC retained in the cells decreased
